The source of these data is article doi:10.1101/125930v1 (bioRxiv, 2017).

This experiment concerns purified E. coli protein synthesis system (PURE). Put plainly: Myc-peptide translation assay. Type of experiment: biochemical. The note with it: MALDI-TOF, assuming similar ionization properties.

In the case of `N[C@H](Cc1ccc(O)cc1)C(=O)O` [^DTyr, D-tyrosine], the consecutive incorporations reads like this: (in the absence of EF-P) at most 2; (with 8 μM EF-P) at most 5.
As to `N[C@@H](Cc1ccc(O)cc1)C(=O)O` [^LTyr, L-tyrosine], the consecutive incorporations entry is, setting by setting: (in the absence of EF-P) “up to 3”; (with 8 μM EF-P) “up to 7”.
